According to patent publication US20230355553A1, “COMPOSITIONS AND METHODS FOR TREATING AND/OR PREVENTING OCULAR DISORDERS” (University of Virginia Patent Foundation, priority 2020, published 2023):

Key:
ASC specks = test: ASC speck assay in BMDMs; type: cell-based, mouse; conditions: Alu RNA-transfected BMDMs; Fluoxetine 10 µM pretreatment 2 hours; n = 5; P = 0.006
Procedure: The ASC speck assay was employed as a measure of inflammasome activation. BMDMs seeded on chambered coverslips (30,000 cells/well) for 12 hours were pretreated with Fluoxetine (10 µM) or 0.1% DMSO (control) for 2 hours. Cells were transfected with Alu RNA (SEQ ID NO: 1) using LIPOFECTAMINE™ 3000 brand transfection reagent (Thermo Fisher Scientific, Waltham, Massachusetts, United States of America) for 12 hours. Coverslips were fixed with 2% paraformaldehyde (15 minutes at room temperature), washed with PBS, permeabilized, blocked with blocking buffer (PBS, 0.1% TX-100, 5% normal goat serum; 1 hour at 4° C.) and incubated with anti-ASC antibody (Adipogen; 1:300) with blocking buffer. Nuclei were stained with DAPI. Slides mounted using FLUOROMOUNT-G® brand mounting medium (SouthernBiotech, Birmingham, Alabama, United States of America) were imaged by confocal microscopy (Nikon A1R). The numbers of specks per 40x field were compared by two-tailed Student’s t test.

secreted IL-18 = test: ELISA of secreted cytokine from human ARPE-19 cells; type: cell-based; conditions: Alu RNA (FIG. 4A), Fluoxetine 10 µM, P < 0.005
[1] = system: Alu RNA-induced RPE degeneration; test: Alu RNA-induced RPE degeneration in mice (ZO-1-stained RPE flat mounts); type: in vivo, mouse; conditions: subretinal Alu RNA 300 ng, drug 1 mM in 0.5 µl intravitreous 24 hours before and immediately after, 7 days
Procedure: Animals. Animal experiments were approved by the University of Virginia (UVA) Institutional Animal Care and Use Committee. C57BL/6J mice (The Jackson Laboratory) were anesthetized with ketamine hydrochloride and xylazine.
The ability of various antidepressant drugs to inhibit Alu RNA (SEQ ID NO: 1) induced RPE degeneration was tested in mice. In vitro transcribed Alu RNA (SEQ ID NO: 1; 300 ng in 1 µl) or vehicle control (PBS) were injected subretinally into mice. Fluoxetine (FLX), Citalopram (CIT), Paroxetine (PAR), Sertraline (SER), Escitalopram (ESC), Venlafaxine (VEN), Imipramine (IMI), Amitriptyline (AMI), Agomelatine (AGO; all from Cayman Chemical Company, Ann Arbor, Michigan, United States of America; 1 mM in 0.5 µl), or PBS was injected into the vitreous humor 24 hours before and immediately after Alu RNA (SEQ ID NO: 1) injections. Animals were euthanized 7 days after Alu RNA (SEQ ID NO: 1) injection, and the eyes were enucleated.
RPE health was assessed by immunofluorescence staining of zonula occludens-1 (ZO-1) on RPE flat mounts. Flat mounts were fixed with 2% paraformaldehyde, stained with rabbit polyclonal antibodies against mouse ZO-1 (Invitrogen; 1:100), and visualized with Alexa-594 (Invitrogen), and imaged using an A1R Nikon confocal microscope. Images were graded as healthy or degenerated in masked fashion. […]

secreted IL-1β = test: ELISA of secreted cytokine from mouse bone marrow derived macrophages; type: cell-based; conditions: mouse BMDMs, B2 RNA (FIG. 3B), Fluoxetine 10 µM, P = 0.01
[2] = system: amyloid beta-induced RPE degeneration; test: Oligomerized amyloid beta-induced RPE degeneration in mice (fundus photos); type: in vivo, mouse; conditions: subretinal oligomerized amyloid beta, fluoxetine 172 ng intravitreous, 7 days
Procedure: The ability of fluoxetine to inhibit RPE degeneration induced by oligomerized amyloid beta was also tested. Oligomerized amyloid beta (0.6 micromoles; AnaSpec Inc., Fremont, California, United States of America) was injected into the subretinal space and fluoxetine (172 ng; TCI Chemicals) was injected into the vitreous humor. Fundus photos were captured 7 days later.

[3] = system: Alu RNA-induced RPE degeneration; test: Alu RNA-induced RPE degeneration in mice, racemic fluoxetine vs enantiomers (fundus photos); type: in vivo, mouse; conditions: subretinal Alu RNA 180 ng, 172 ng drug intravitreous, 7 days
Procedure: In vitro transcribed Alu RNA (SEQ ID NO: 1; 180 ng) was injected into the subretinal space of mice and 172 ng racemic fluoxetine (TCI Chemicals, Portland, Oregon, United States of America) or enantiomers of fluoxetine (Santa Cruz Biotechnology, Inc., Dallas, Texas, United States of America) was injected into the vitreous humor. Fundus photos were captured 7 days later. […] Arrowheads show the extent and intensity of degeneration of the retinal pigmented epithelium (RPE).

caspase-1 activation [4] = test: Western blot of Alu RNA-induced caspase-1 activation in mouse BMDMs; type: cell-based; conditions: Alu RNA-transfected mouse BMDMs, Fluoxetine 10 µM, n = 3 per group
Procedure: (§1) Cell culture. The human retinal pigment epithelial cell line ARPE-19 (ATCC) was maintained in Dulbecco’s Modified Eagle Medium (DMEM) supplemented with 10% fetal bovine serum (FBS) and standard antibiotics. Mouse bone marrow derived macrophages (BMDMs) were cultured in Iscove’s modified Dulbecco’s media (IMDM) with 10% FBS and 20% L929 supernatants. All cells were maintained at 37° C. in a 5% CO2 environment.
(§2) In order to test for the ability of fluoxetine to inhibit inflammasome activation, cells were transfected with (SEQ ID NO: 1) RNA or mock-transfected for 12 hour and pre-treated with Fluoxetine (10 µM) for 1 hour and again after Alu RNA (SEQ ID NO: 1) transfection. Supernatants were collected and were briefly spun down to remove floating cells. Proteins from the cell-free supernatant were precipitated by adding sodium deoxycholate (0.15% final) followed by adding TCA (7.2% final) and incubating on ice overnight. Samples were spun down at 13000 × g for 30 minutes and pellets were washed 2 times with ice-cold acetone. Precipitated proteins solubilized in 4X LDS Buffer with 2-mercaptoethanol were resolved by SDS-PAGE on NOVEX® brand Tris-Glycine Gels (Invitrogen Corporation, Carlsbad, California, United States of America) and transferred onto Immobilon-FL PVDF membranes (MilliporeSigma, Burlington, Massachusetts, United States of America). […]

cataract formation = test: Cataract formation after administration of fluoxetine preparations to the eye; type: in vivo
dry macular degeneration = test: Health insurance claims analysis (PearlDiver database) of dry macular degeneration among patients with depression; type: in vivo, human
Source text: Data on patients with commercial health insurance was obtained from the PearlDiver Patient Records Database (Colorado Springs, Colorado, United States of America), which captures health care claims and medication usage for persons in the Humana network from 2007 to 2017. These de-identified data are Health Insurance Portability and Accountability Act-compliant and were deemed by the University of Virginia Institutional Review Board (IRB; University of Virginia, Charlottesville, United States of America) as exempt from IRB approval requirements.
Patients were included in the analysis if they had continuous enrollment in the plan for at least 1 year and had at least 2 medical claims of Depression and were at least 50 years of age at baseline. Individuals with pre-existing Dry Macular Degeneration (1 or more medical claims prior to diagnosis of Depression) were excluded. Disease claims were identified by International Classification of Diseases (ICD)-9-CM and ICD-10-CM codes.
Individuals were classified as receiving Fluoxetine if they filled one or more outpatient pharmacy prescriptions for generic or brand versions, either in sole form or as a combination medication, as identified by National Drug Codes of the Food and Drug Administration (FDA) of the United States.
Time to initial diagnosis of Dry Macular Degeneration, which was confirmed by 2 or more medical claims, was the dependent variable for this analysis.
To analyze the risk of Dry Macular Degeneration between those exposed to Fluoxetine and those not exposed to Fluoxetine, an adjusted Cox proportional hazards model was fit. The adjusted model included as covariates age, gender, race, smoking, and body mass index.
The event rates of dry macular degeneration in the general population and in the depression cohort are shown. Fluoxetine use was associated with a crude risk reduction of 28%. P < 0.0001 by χ2 test. Fluoxetine use was associated with a reduction in the hazard of developing dry macular degeneration. P < 0.0001 by likelihood ratio test.

caspase-1 activation [5] = test: Western blot of Alu RNA-induced caspase-1 activation in human ARPE19 cells; type: cell-based; conditions: Alu RNA-transfected human ARPE19 cells, Fluoxetine 10 µM, n = 3 per group
Procedure: as §1, §2

cataract formation, share of subjects (cataract formation) | Structure (SMILES) | ASC speck formation (number of specks per 40x field) (ASC specks) | secreted IL-18 (FIG. 4A) (secreted IL-18) | RPE degeneration (percentage of eyes with RPE degeneration) [1] | secreted IL-1β (FIG. 3B) (secreted IL-1β) | RPE degeneration extent and intensity (fundus photos) [2] | RPE degeneration extent and intensity (fundus photos) [3] | caspase-1 activation (cleavage of pro-caspase-1 into active caspase-1) (caspase-1 activation [4]) | Hazard Ratio (95% Confidence Interval) of developing dry macular degeneration (dry macular degeneration; Fluoxetine Use Yes vs. No, multivariate Cox regression corrected for age, gender, race, smoking, body mass index) | crude risk reduction of dry macular degeneration (dry macular degeneration; Fluoxetine use vs no use, P < 0.0001 by χ2 test) | rate of developing dry macular degeneration (Kaplan-Meier) (dry macular degeneration; Fluoxetine use, log rank test P < 0.0001 (FIG. 7)) | Event Rate of dry macular degeneration (dry macular degeneration; Fluoxetine users (Ever), depression cohort) | Dry Macular Degeneration (#) (dry macular degeneration; Fluoxetine users (Ever), depression cohort, age at least 50, 84,603 total patients) | caspase-1 activation (cleavage of pro-caspase-1 into active caspase-1) (caspase-1 activation [5])
up to 50% | CNCCC(Oc1ccc(C(F)(F)F)cc1)c1ccccc1 (racemic) [Fluoxetine, N-methyl-3-phenyl-3-[4-(trifluoromethyl)phenoxy]propan-1-amine] | inhibited | statistically significantly reduced | significantly reduced | statistically significantly reduced | reduced the RPE degeneration extent and intensity | reduced the RPE degeneration extent and intensity, although the protection was partial | reduced | 0.590 (0.565, 0.616) | 28% | slower rate | 3.5% | 3,000 | reduced
– | CNCC[C@@H](Oc1ccc(C(F)(F)F)cc1)c1ccccc1 [R-fluoxetine] | – | – | – | – | – | more complete protection | – | – | – | – | – | – | –
– | CNCC[C@H](Oc1ccc(C(F)(F)F)cc1)c1ccccc1 [S-fluoxetine] | – | – | – | – | – | more complete protection | – | – | – | – | – | – | –
